In patent publication US7763772B2, “Activation of the arabidopsis hypertall (HYT1/YUCCA6) locus affects several auxin mediated responses” (Purdue Research Foundation, priority 2006, dated 2010):

Experiments:
[1] = target: T1, MBP:YUCCA6 fusion protein (Arabidopsis thaliana, UniProt Q8VZ59); assay: Recombinant YUCCA6 enzyme activity (substrate-dependent NADPH oxidation); assay type: biochemical; settings: tryptamine as a substrate; 0.1 mM NADPH, pH 8.0, 22° C.
T1 construct: The full-length YUCCA6 ORF was synthesized from Col-0 cDNA by PCR amplification and subcloned into the expression vector pMAL-c2; made in house; host or cells: Escherichia coli BL21
T1 sequence (Q8VZ59 1-417): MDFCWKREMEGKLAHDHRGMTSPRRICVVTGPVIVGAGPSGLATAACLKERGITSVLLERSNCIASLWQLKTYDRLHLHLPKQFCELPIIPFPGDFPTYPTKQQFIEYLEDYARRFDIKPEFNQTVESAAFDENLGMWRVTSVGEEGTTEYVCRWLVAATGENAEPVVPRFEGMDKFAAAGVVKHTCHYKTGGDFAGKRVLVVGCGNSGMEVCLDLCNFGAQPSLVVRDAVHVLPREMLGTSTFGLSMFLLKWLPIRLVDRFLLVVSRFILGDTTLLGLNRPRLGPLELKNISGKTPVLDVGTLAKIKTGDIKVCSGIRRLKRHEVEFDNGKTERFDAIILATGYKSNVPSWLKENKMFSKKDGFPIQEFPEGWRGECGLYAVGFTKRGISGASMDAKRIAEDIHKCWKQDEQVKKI
Source text: (§1) It has been reported that maltose-binding protein (MBP):YUCCA1 fusion proteins have catalytic activity to convert tryptamine to N-hydroxyl tryptamine (Zhao et al., 2001). To investigate if YUCCA6 also is involved in oxidation of tryptamine, we tested YUCCA6 activity with MBP:YUCCA6 fusion protein expressed in and purified from bacteria. It is known that FMOs oxidize NADPH by transfer of electrons to oxygen. […] The catalytic activity of YUCCA6 for oxidation of tryptamine, together with resistance of yucca6 mutants to 5-methyl-Trp, strongly implies that YUCCA6 has an important function in Trp-dependent auxin biosynthesis.
(§2) The full-length YUCCA6 ORF was synthesized from Col-0 cDNA by PCR amplification and subcloned into the expression vector pMAL-c2. […] The protein contents were measured using BIO-RAD Protein Assay (no. 500-0006), and protein was separated by SDS-PAGE.
(§3) The activities of MBP:YUCCA6 and MBP proteins were measured by determining the rates of substrate-dependent NADPH oxidation consumption. […] The rates of NADPH oxidation caused by addition of tryptamine were monitored at 340 nm for 5 minutes at 22° C. using a UV-visible spectrophotometer (model UV-1601; Shimazu). The change in absorbance per minute was converted to micromoles NADPH consumed per minute using the extinction coefficient 6,220 M^−1 cm^−1 for NADPH. […]

[2] = tested on: YUCCA6 gene expression; assay: YUCCA6 gene expression after hormone treatment (RT-PCR); assay type: in vivo, Arabidopsis thaliana; settings: RNA from 2-week old seedlings including roots
Method: (§4) YUCCA gene expression was checked by RT-PCR. RNA was prepared from 2-week old seedlings including roots. […] UBC was used as a loading control.
(§5) Arabidopsis YUCCA6 is one of 11 yucca family members. YUCCA6 belongs to the same sub-family with YUCCA2. We determined if YUCCA6 gene expression is regulated by ABA.

[3] = tested on: Arabidopsis thaliana plants (wild-type, yucca6-1D, yucca6-2D); assay: Resistance to the toxic Trp analog 5-methyl-Trp in MS medium; assay type: in vivo; settings: MS medium containing 80 NM 5-methyl-Trp
Source text: It has been proposed that plants use […] and Trp-independent routes to synthesize auxin (Normanly et al., 1993; Müller and Weiler, 2000; Woodward and Bartel, 2005). To investigate in which pathway YUCCA6 may participate, we tested the resistance of yucca6-1D and yucca6-2D to the toxic Trp analog, 5-methyl-Trp.

[4] = tested on: YUCCA2 gene expression; assay: YUCCA2 gene expression after ABA treatment (RT-PCR); assay type: in vivo, Arabidopsis thaliana; settings: RNA from 2-week old seedlings including roots
Method: as §4, §5

[5] = tested on: YUCCA 1 gene expression; assay: YUCCA1 gene expression after ABA treatment (RT-PCR); assay type: in vivo, Arabidopsis thaliana; settings: RNA from 2-week old seedlings including roots
Method: as §4, §5

[6] = substrate: NCCc1c[nH]c2ccccc12; assay: Recombinant YUCCA6 enzyme activity (substrate-dependent NADPH oxidation); assay type: biochemical, Arabidopsis thaliana; settings: other: tryptamine as a substrate, 0.1 mM NADPH, pH 8.0, 22° C.
Source text: as §1, §2, §3

NCCc1c[nH]c2ccccc12 [tryptamine]
Vmax [1]: 9.46 Nmol NADPH min^−1 mg^−1

NC1(C(=O)O)CC1 [ACC, 1-aminocylopropane-1-carboxylic acid]
regulation of YUCCA6 transcript level [2]: could not regulate

Cc1ccc2[nH]cc(C[C@H](N)C(=O)O)c2c1 [5-methyl-Trp]
survival and growth of wild-type plants ([3]; wild-type plants): could not | survival and growth of yucca6-1D plants ([3]; yucca6-1D): could survive and grow | survival and growth of yucca6-2D plants ([3]; yucca6-2D): could survive and grow

CC1=CC(=O)CC(C)(C)[C@@]1(O)/C=C/C(C)=C\C(=O)O [ABA, Abscisic Acid]
regulation of YUCCA2 gene expression [4]: down-regulated | regulation of YUCCA6 transcript level [2]: down-regulated | regulation of YUCCA 1 gene expression [5]: does not change

B1: MBP:YUCCA6 fusion protein (Arabidopsis thaliana) (protein)
chain: MDFCWKREMEGKLAHDHRGMTSPRRICVVTGPVIVGAGPSGLATAACLKERGITSVLLERSNCIASLWQLKTYDRLHLHLPKQFCELPIIPFPGDFPTYPTKQQFIEYLEDYARRFDIKPEFNQTVESAAFDENLGMWRVTSVGEEGTTEYVCRWLVAATGENAEPVVPRFEGMDKFAAAGVVKHTCHYKTGGDFAGKRVLVVGCGNSGMEVCLDLCNFGAQPSLVVRDAVHVLPREMLGTSTFGLSMFLLKWLPIRLVDRFLLVVSRFILGDTTLLGLNRPRLGPLELKNISGKTPVLDVGTLAKIKTGDIKVCSGIRRLKRHEVEFDNGKTERFDAIILATGYKSNVPSWLKENKMFSKKDGFPIQEFPEGWRGECGLYAVGFTKRGISGASMDAKRIAEDIHKCWKQDEQVKKI
notes: The full-length YUCCA6 ORF was synthesized from Col-0 cDNA by PCR amplification and subcloned into the expression vector pMAL-c2; made in house; host or cells: Escherichia coli BL21
Km [6]: 274 µM
